What was measured:
[1] = target: ACAT, vascular wall-derived enzyme (Oryctolagus cuniculus, UniProt G1SUQ0); test: ACAT inhibitory action, vascular wall-derived enzyme (microsome from thoracic aorta of cholesterol-fed rabbit); assay type: biochemical; settings: 14C-Oleoyl-CoA, 37° C.
Experimental: (§1) In a conventional manner, microsome was prepared from the thoracic aorta of a rabbit fed with a 1% cholesterol diet for 8 weeks, which was then suspended in 0.15 M phosphate buffer, pH 7.4, to prepare an enzyme solution. An enzyme solution was prepared from a rabbit small intestine on normal diet, which was defined as an enzyme solution derived from small intestine.
(§2) 10 μl of an enzyme solution was added to the resulting solution for reaction at 37° C. for […] (small intestine-derived enzyme solution was subjected to reaction for 3 minutes). Subsequently, the reaction was terminated by adding 3 ml of chloroform/methanol (2/1) and 0.5 ml of 0.04 N hydrochloric acid to the reaction solution, to extract lipid. The solvent layer was concentrated and dried, which was then dissolved in hexane and spotted on a TLC plate (manufactured by Merck, Co.). The plate was eluted with hexane:ether:acetic acid (75:25:1). The radioactivity of the resulting cholesterol ester fraction was assayed by BAS 2000 (manufactured by Fuji Photo Film, Co., Ltd.). Compared with the radioactivity of a control prepared by single addition of DMSO, IC50 was determined.

[2] = target: T1, ACAT, small intestine-derived enzyme (Oryctolagus cuniculus, UniProt G1SFD9); test: ACAT inhibitory action, small intestine-derived enzyme; assay type: biochemical; settings: rabbit small intestine enzyme solution, 14C-Oleoyl-CoA, 37° C., 3 minutes
T1 sequence (G1SFD9 1-524): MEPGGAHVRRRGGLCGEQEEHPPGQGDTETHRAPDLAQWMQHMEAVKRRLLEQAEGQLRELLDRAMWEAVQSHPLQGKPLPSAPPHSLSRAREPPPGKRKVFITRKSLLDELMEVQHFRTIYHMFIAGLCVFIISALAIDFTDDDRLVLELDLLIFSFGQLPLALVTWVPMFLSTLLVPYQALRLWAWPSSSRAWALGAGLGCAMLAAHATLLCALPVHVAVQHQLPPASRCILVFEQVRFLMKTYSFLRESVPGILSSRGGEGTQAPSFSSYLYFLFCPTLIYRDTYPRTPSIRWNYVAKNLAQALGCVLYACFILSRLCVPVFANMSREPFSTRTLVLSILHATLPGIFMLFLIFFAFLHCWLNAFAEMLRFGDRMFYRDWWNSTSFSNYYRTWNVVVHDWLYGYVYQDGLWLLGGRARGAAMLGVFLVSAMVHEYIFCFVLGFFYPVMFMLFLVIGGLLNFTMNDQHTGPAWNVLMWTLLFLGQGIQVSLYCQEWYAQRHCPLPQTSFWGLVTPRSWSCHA
Experimental: as §1, §2

[3] = tested on: ACAT in HepG2 cells; test: ACAT inhibitory action in HepG2 cells, cholesterol ester formation; assay type: cell-based; settings: 10 μg/ml 25-OH cholesterol, 18-hr culturing, cholesterol ester per protein, read-out: IC50 (μM) of HepG2-derived enzyme
Experimental: (§3) J774 cells or HepG2 cells were inoculated on a 24-well plate; J774 cells and HepG2 cells were cultured in DMEM and MEM culture broths (each of the broths containing 10% calf fetus serum), respectively, in a 5% CO2 incubator at 37° C. for 24 hours. […] After discarding the culture media, the resulting cultures were rinsed twice with PBS and extracted with 1.5 ml of hexane:isopropanol (3:2), for concentration and drying. The extracts were dissolved in isopropanol containing 0.2 ml of 10% Triton X-100, to assay total cholesterol (TC) and free cholesterol (FC) by using Cholesterol E Test WAKO (manufactured by Wako Pure Chemicals, Co.) and Free Cholesterol E Test Wako (manufactured by Wako Pure Chemicals, Co.). […] Based on the difference between TC and FC, cholesterol ester was calculated per protein, to determine IC50, compared with the calculated control IC50 value.

[4] = target: T2, ACAT in J774 cells (Mus musculus, UniProt Q61263); test: ACAT inhibitory action (anti-foaming action) in J774 cells, cholesterol ester formation; assay type: cell-based; settings: for IC50: J774 cells, 10 μg/ml 25-OH cholesterol, 18-hr culturing, cholesterol ester per protein, read-out: IC50 (μM) of J774-derived enzyme; for IC50 (HepG2)/IC50 (J774): ratio HepG2 / J774
T2 construct: J774 cells or HepG2 cells were inoculated on a 24-well plate; endogenous in cells; host or cells: J774 cells
T2 sequence (Q61263 1-540): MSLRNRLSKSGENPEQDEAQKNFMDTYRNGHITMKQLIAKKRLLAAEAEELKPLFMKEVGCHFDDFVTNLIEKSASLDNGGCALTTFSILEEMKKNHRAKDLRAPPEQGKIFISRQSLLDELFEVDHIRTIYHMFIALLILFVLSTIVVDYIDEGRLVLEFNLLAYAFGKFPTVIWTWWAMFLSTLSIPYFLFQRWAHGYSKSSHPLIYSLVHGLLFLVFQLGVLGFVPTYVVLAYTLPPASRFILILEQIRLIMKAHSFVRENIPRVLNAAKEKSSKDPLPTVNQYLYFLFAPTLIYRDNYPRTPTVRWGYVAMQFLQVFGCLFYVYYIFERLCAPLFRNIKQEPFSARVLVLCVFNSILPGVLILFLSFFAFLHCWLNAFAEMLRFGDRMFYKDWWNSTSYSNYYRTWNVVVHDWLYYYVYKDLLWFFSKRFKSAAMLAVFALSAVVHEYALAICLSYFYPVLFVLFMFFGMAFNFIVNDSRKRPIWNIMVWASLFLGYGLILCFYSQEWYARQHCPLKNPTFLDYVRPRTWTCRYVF
Experimental: as §3

ACAT, vascular wall-derived enzyme, sequence (G1SUQ0 entry or part of it): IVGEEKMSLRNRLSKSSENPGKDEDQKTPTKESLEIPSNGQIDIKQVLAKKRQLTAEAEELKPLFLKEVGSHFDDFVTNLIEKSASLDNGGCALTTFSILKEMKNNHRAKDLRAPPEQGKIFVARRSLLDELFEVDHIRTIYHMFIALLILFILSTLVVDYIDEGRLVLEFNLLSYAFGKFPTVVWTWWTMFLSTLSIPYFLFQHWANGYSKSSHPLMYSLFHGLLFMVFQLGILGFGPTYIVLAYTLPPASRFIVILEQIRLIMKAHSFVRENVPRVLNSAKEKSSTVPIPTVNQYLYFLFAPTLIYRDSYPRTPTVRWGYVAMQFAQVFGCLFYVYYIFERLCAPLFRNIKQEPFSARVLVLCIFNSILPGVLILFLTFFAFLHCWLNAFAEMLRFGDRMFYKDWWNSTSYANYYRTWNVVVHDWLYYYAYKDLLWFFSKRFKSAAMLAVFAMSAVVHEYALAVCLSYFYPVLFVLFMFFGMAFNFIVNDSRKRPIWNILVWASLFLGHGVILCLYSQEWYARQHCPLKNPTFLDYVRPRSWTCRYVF

Row | IC50 [3] [µM] | melting point [°C] | SMILES | IC50 [1] [µM] | IC50 [2] [µM] | IC50 [4] [µM] | IC50 (HepG2)/IC50 (J774) [4]
1 | – | – | CCCCCCCCCN(CC(C)(C)C)C(=O)N[C@H]1CCCC[C@@H]1OC(=O)CCNC(=O)C1OC(C)(C)OCC1(C)C (stereo partly drawn) [Control 3, N-(2,2,5,5-tetramethyl-1,3-dioxan-4-ylcarbonyl)-β-alanine 2(S)-[N′-(2,2-dimethylpropyl)-N′-nonylureido]-1(S)-cyclohexyl ester, reference compound] | – | 0.056 | 0.32 | 4.3
2 | 29.8 | 118 to 119 | COC(=O)c1cccc2nc(SCCCCCC(=O)Nc3c(C(C)C)cccc3C(C)C)oc12 [Example 46, 6-(7-methoxycarbonylbenzoxazol-2-ylthio)-N-(2,6-diisopropylphenyl)hexanamide] | – | – | 0.098 | 303.4
3 | 4.1 | 94 to 95 | CC(C)c1cccc(C(C)C)c1NC(=O)CCCCCSc1nc2ncccc2o1 [Example 1, 6-(oxazolo[4,5-b]pyridin-2-ylthio)-N-(2,6-diisopropylphenyl)hexanamide] | – | – | 1.3 | 3.2

Row | SMILES | IC50 [3] [µM] | melting point [°C] | IC50 [1] [µM] | IC50 [2] [µM] | IC50 [4] [µM] | IC50 (HepG2)/IC50 (J774) [4]
4 | CCCCCCCN(CCCCCSc1nc(-c2ccccc2)c(-c2ccccc2)[nH]1)c1nc2ccccc2o1 [Control 4, reference compound] | 0.75 | – | 0.026 | 0.037 | 0.12 | 6.3
